Results published in ChEMBL document CHEMBL3046395, “Synthesis and pharmacological investigation of novel 3-(benzyl)-2-substituted amino-3H-quinazolin-4-ones as analgesic and anti-inflammatory agents” (Med Chem Res, 2008).

Assays:
[1] = test system: Rattus norvegicus; assay: Anti-inflammatory activity in Rattus norvegicus (rat) assessed as inhibition of carrageenan-induced paw edema at 20 mg/kg, po measured at 30 min post carrageenan-challenge (reference value: 5.1 +/- 0.29%); type: functional; conditions: 0.5 h
[2] = test system: Rattus norvegicus; assay: Anti-inflammatory activity in Rattus norvegicus (rat) assessed as inhibition of carrageenan-induced paw edema at 10 mg/kg, po measured at 30 min post carrageenan-challenge (reference value: 5.1 +/- 0.29%); type: functional; conditions: 0.5 h
[3] = test system: Mus musculus; assay: Analgesic activity in Mus musculus Wistar albino (mouse) at 20 mg/kg, po after 3 hr by tail-flick test (reference value: 4 +/- 0.91%); type: functional
[4] = test system: Mus musculus; assay: Analgesic activity in Mus musculus Wistar albino (mouse) at 10 mg/kg, po after 3 hr by tail-flick test (reference value: 4 +/- 0.91%); type: functional
[5] = test system: Mus musculus; assay: Analgesic activity in Mus musculus Wistar albino (mouse) at 20 mg/kg, po after 2 hr by tail-flick test (reference value: 4 +/- 0.59%); type: functional
[6] = test system: Mus musculus; assay: Analgesic activity in Mus musculus Wistar albino (mouse) at 10 mg/kg, po after 2 hr by tail-flick test (reference value: 4 +/- 0.59%); type: functional
[7] = test system: Mus musculus; assay: Analgesic activity in Mus musculus Wistar albino (mouse) at 20 mg/kg, po after 1 hr by tail-flick test (reference value: 6 +/- 0.49%); type: functional
[8] = test system: Mus musculus; assay: Analgesic activity in Mus musculus Wistar albino (mouse) at 10 mg/kg, po after 1 hr by tail-flick test (reference value: 6 +/- 0.49%); type: functional
[9] = test system: Mus musculus; assay: Analgesic activity in Mus musculus Wistar albino (mouse) at 20 mg/kg, po after 30 min by tail-flick test (reference value: 2 +/- 0.35%); type: functional
[10] = test system: Mus musculus; assay: Analgesic activity in Mus musculus Wistar albino (mouse) at 10 mg/kg, po after 30 min by tail-flick test (reference value: 2 +/- 0.35%); type: functional
[11] = test system: Rattus norvegicus; assay: Gastrointestinal toxicity in Rattus norvegicus Wistar albino (rat) assessed as ulcer index at 20 mg/kg, ip administered QD for 3 days measured on day 4 (reference value: 0.15 +/- 0.32); type: organism-based; design: dose 20 mg/kg, route intraperitoneal; conditions: in vivo, 72 h
[12] = test system: Rattus norvegicus; assay: Anti-inflammatory activity in Rattus norvegicus (rat) assessed as inhibition of carrageenan-induced paw edema at 20 mg/kg, po measured at 3 hr post carrageenan-challenge (reference value: 3.2 +/- 0.93%); type: functional
[13] = test system: Rattus norvegicus; assay: Anti-inflammatory activity in Rattus norvegicus (rat) assessed as inhibition of carrageenan-induced paw edema at 10 mg/kg, po measured at 3 hr post carrageenan-challenge (reference value: 3.2 +/- 0.93%); type: functional
[14] = test system: Rattus norvegicus; assay: Anti-inflammatory activity in Rattus norvegicus (rat) assessed as inhibition of carrageenan-induced paw edema at 20 mg/kg, po measured at 2 hr post carrageenan-challenge (reference value: 5.7+/- 0.32%); type: functional
[15] = test system: Rattus norvegicus; assay: Anti-inflammatory activity in Rattus norvegicus (rat) assessed as inhibition of carrageenan-induced paw edema at 10 mg/kg, po measured at 2 hr post carrageenan-challenge (reference value: 5.7+/- 0.32%); type: functional
[16] = test system: Rattus norvegicus; assay: Anti-inflammatory activity in Rattus norvegicus (rat) assessed as inhibition of carrageenan-induced paw edema at 20 mg/kg, po measured at 1 hr post carrageenan-challenge (reference value: 6.1 +/- 0.27%); type: functional
[17] = test system: Rattus norvegicus; assay: Anti-inflammatory activity in Rattus norvegicus (rat) assessed as inhibition of carrageenan-induced paw edema at 10 mg/kg, po measured at 1 hr post carrageenan-challenge (reference value: 6.1 +/- 0.27%); type: functional

Compound | inhibition in vivo at 20 mg/kg [1] [%] | inhibition in vivo at 10 mg/kg [2] [%] | Activity [3] [%] | Activity [4] [%] | Activity [5] [%] | Activity [6] [%] | Activity [7] [%] | Activity [8] [%] | Activity [9] [%] | Activity [10] [%] | UI [11] | inhibition in vivo at 20 mg/kg [12] [%] | inhibition in vivo at 10 mg/kg [13] [%] | inhibition in vivo at 20 mg/kg [14] [%] | inhibition in vivo at 10 mg/kg [15] [%] | inhibition in vivo at 20 mg/kg [16] [%] | inhibition in vivo at 10 mg/kg [17] [%]
CC/C(C)=N/Nc1nc2ccccc2c(=O)n1Cc1ccccc1 | 50 | 45 | 45 | 35 | 76 | 65 | 73 | 62 | 71 | 59 | 0.53 | 39 | 26 | 60 | 51 | 59 | 48
CCC(CC)=NNc1nc2ccccc2c(=O)n1Cc1ccccc1 | 59 | 49 | 50 | 41 | 81 | 72 | 79 | 69 | 74 | 63 | 0.5 | 41 | 30 | 70 | 56 | 68 | 53
CCC/C(C)=N/Nc1nc2ccccc2c(=O)n1Cc1ccccc1 | 58 | 47 | 48 | 40 | 79 | 67 | 77 | 60 | 67 | 58 | 0.48 | 39 | 30 | 67 | 53 | 65 | 51
O=C([O-])Cc1ccccc1Nc1c(Cl)cccc1Cl.[Na+] [DICLOFENAC SODIUM] | 45 | 32 | 39 | 33 | 62 | 45 | 55 | 43 | 46 | 37 | 1.65 | 42 | 33 | 60 | 39 | 52 | 38
